Results: patent US8410161B2, “Thioxanthone ring system derivatives” (National Defense Medical Center, priority 2010, dated 2013)

Experiments:
Format in all cases: cell-based
[1] = system: A3 cell lines; assay: MTT assay, A3 cell lines (lung cancer stem cell); settings: for inhibition effect on A3 cell line (in words): summary of MTT cell viabilities
Description: Please to FIG. 4B, various cell viabilities of the A3 cell lines can be obtained through the MTT assay and illustrated in FIG. 4B while the compounds No. 1˜30 are used to treat A3 cell lines, wherein A3 cell lines are lung cancer stem cell.

[2] = system: A control cell lines; assay: MTT assay, A control cell lines (lung cancer cell)
Description: Please refer to Table 1 and FIGS. 4A-4C. According to a MTT assay (Table 1), various cell viabilities of the A control cell lines can be obtained and illustrated in FIG. 4A while the compounds No. 2˜30 are used to treat A control cell lines, wherein A control cell lines are lung cancer cell.

[3] = system: HEL299 fibroblast; assay: MTT assay, HEL299 fibroblast
Description: (§1) Please refer to FIG. 4C, various cell viabilities of the HEL299 cell lines can be obtained through the MTT assay while the compounds No. 1˜30 are used to treat HEL299 cell lines, wherein HEL299 cell lines are fibroblast.

[4] = MTT assay, HEL299 fibroblast; settings: human
Description: as §1

SMILES | cell viabilities of A3 cell lines (MTT assay) [1] | inhibition effect on A3 cell line (in words) [1] | cell viabilities of A control cell lines (MTT assay) [2] | inhibition effect on A control cell line (in words) ([2]; summary of MTT cell viabilities) | cytotoxicity effect on the normal fibroblast (in words) [3] | viability [4]
O=c1c2ccccc2sc2c(Cl)c(SCc3ccc(Br)cc3)ccc12 [No. 25, 3-(4-Bromobenzylthio)-4-chloro-9H-thioxanthen-9-one] | 61.5% | inhibition effect | 40.8% | inhibition effect | without the cytotoxicity effect | 79.3%
Cc1ccc(Sc2ccc3c(=O)c4ccccc4sc3c2Cl)c(C)c1 [No. 10, 4-Chloro-3-(2,4-dimethylphenylthio)-9H-thioxanthen-9-one] | 59.9% | inhibition effect | 104 ± 11.0% | – | without the cytotoxicity effect | 108%
